# Measured values as given in article PMC10826971, “Evaluating protein cross-linking as a therapeutic strategy to stabilize SOD1 variants in a mouse model of familial ALS” (PLOS Biology, 2024).
# Where “and” joins values, the source holds several entries; their conditions need not be identical. Identical values can stand only once. Entries after “also recorded” stand apart in the source; their conditions may differ. Like-named read-outs stand apart in the source and are kept apart here.
# How the values were obtained:
# [1] = format: in vitro ADME; details: human; for plasma protein binding assay readout (Fig 6C): 50 uM
# From the text: Fig 6 Cross-linking at sub-toxic concentrations within cells. […] Results are shown as percentage of viable cells compared to a vehicle control. Note: cell viability <70% (dotted line) is generally considered as the threshold for cytotoxicity, and viabilities >100% indicate a trophic effect. Controls included EMEM with 0.1% DMSO (dimethyl sulfoxide, negative control) and 500 μm of chlorpromazine (positive control). […] The data underlying this figure can be found in S1 Data. LC-MS/MS, liquid chromatography-tandem mass spectrometry; MS, mass spectrometry; SOD1, superoxide dismutase 1.
# [2] = molecular target: wild-type SOD1 (Homo sapiens, UniProt P00441); assay: Differential scanning fluorimetry (DSF), thermal stability; format: binding; design: made in house; host or cells: EGy118ΔSOD1 yeast, YEp351 expression vector; details: 10-fold molar excess S-XL6, 4 h 37°C; untreated 75.9°C
# wild-type SOD1, sequence (P00441 2-154 limits assumed): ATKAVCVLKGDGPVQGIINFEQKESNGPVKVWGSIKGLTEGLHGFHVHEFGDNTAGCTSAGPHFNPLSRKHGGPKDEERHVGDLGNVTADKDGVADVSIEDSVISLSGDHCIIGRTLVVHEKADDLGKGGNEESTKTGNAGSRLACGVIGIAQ
# Description: (§1) To understand how cross-linking effects SOD1 stability, we quantified changes in unfolding temperature (ΔTu, hereafter thermal stability).
# (§2) The effect of cross-link formation on the thermal stability of SOD1 was determined by differential scanning fluorimetry as previously described. […] After incubation, SYPRO Orange (Invitrogen Corporation, Carlsbad, California, USA), an environmentally sensitive fluorescent dye which is quenched in an aqueous environment but becomes unquenched once it binds hydrophobic residues, was added to the reaction mixture to a final concentration of 200×. The samples were then transferred to a fast optical 96-well reaction plate (Applied Biosystem, Life Technologies Corporation, Carlsbad, California, USA) and loaded on to the real-time PCR machine (Applied Biosystem, Life Technologies Corporation, Carlsbad, California, USA) after plate was spun down to eliminate bubbles. The Melt curve template in StepOne Plus software was used to set up a method. […] The final concentration of DMSO in the reaction mixture was checked as it contributes to the denaturation of proteins. […] The background data was subtracted from the average relative fluorescence and average derivate for each temperature point, and the data were normalized before Tus were quantified by averaging the negative first derivative of relative fluorescence of all 3 runs and identifying the local minima.
# [3] = molecular target: SOD1^G93A (Homo sapiens, UniProt P00441, G94A); assay: as above; format: binding; design: made in house; host or cells: EGy118ΔSOD1 yeast, YEp351 expression vector; details: 10-fold molar excess S-XL6, 4 h 37°C; untreated 70.6°C
# SOD1^G93A, sequence (P00441 2-154 G94A limits assumed): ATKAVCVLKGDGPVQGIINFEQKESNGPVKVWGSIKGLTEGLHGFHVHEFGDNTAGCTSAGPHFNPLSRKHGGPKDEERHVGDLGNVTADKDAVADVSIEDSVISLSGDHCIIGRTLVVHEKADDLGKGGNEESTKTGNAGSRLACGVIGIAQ
# Description: as §1, §2
# [4] = system: NSC-34 cells expressing EGFP-WT-SOD1; assay: Determination of cells containing inclusions; format: cell-based, mouse; design: Inclusion Formation: unit not given here; details: for Inclusion Formation: WT, 48 h, replicates
# Description: (§3) Transfected NSC-34 cells were plated out into 96-well plates and left overnight. […] Cells were then fixed using 4% (w/v) paraformaldehyde in 1×PBS for 20 min. Plates for imaging were then processed as previously described with some changes. Cells were imaged using a DMi8 epifluorescent microscope (Leica, Germany) fitted with a Mercury Arc Lamp, a 10× 0.25NA (CAT NO) air objective and an automated stage. A software-based autofocus strategy was utilized to focus on the GFP signal within cells, with a subsequent image being taken in the DAPI channel to view Hoescht-stained nuclei. Relative focus correction was applied between channels to offset emission wavelength effects to the focal plane. Following image acquisition, images were corrected for illumination variation via a background method and processed using a combination of FIJI [66], StarDist, CellProfiler, and CellProfiler Analyst as previously described.
# [5] = system: NSC-34 cells expressing EGFP-G93A; assay: Determination of cells containing inclusions; format: cell-based, mouse; design: Inclusion Formation: unit not given here; details: for Inclusion Formation: G93A, 48 h, replicates
# Description: as §3
# [6] = molecular target: T1, EGFP-labeled SOD1 (wild-type, fALS variants, Cys111Ser, F50E/G51E) (Homo sapiens, UniProt P00441, C112S); assay: Immunoblotting for SOD1-EGFP cross-linking in NSC-34 cells; format: cell-based, mouse NSC-34 cells; details: 20 μm S-XL6
# T1 construct: expressed in transfected cells; host or cells: NSC-34 mouse neuroblastoma/motor neuron hybrid cells
# T1 sequence (P00441 2-154 C112S): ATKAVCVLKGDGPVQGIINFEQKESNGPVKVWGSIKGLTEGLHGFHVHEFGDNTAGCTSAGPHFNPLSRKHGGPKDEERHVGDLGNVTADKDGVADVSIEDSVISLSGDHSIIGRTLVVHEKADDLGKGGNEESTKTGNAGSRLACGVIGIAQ
# Description: (§4) Mouse neuroblastoma/motor neuron hybrid cells (NSC-34) were cultured and maintained as previously described. Briefly, NSC-34 cells were cultured in Dulbecco’s Modified Eagle’s Medium with F12 supplement (DMEM/F12, Invitrogen Australia) containing 10% (v/v) heat-inactivated fetal bovine serum (FBS, Bovogen Biologicals, Australia) and 2 mM L-Glutamine (Invitrogen, Australia). Cells were passaged using 0.25% trypsin, 0.02% EDTA (Invitrogen, Australia). Cells were maintained within humidified incubators at 37°C with 5% CO2.
# (§5) To transfect NSC-34 cells, they were first plated out to 40% confluency in either 6-well or 12-well tissue culture-treated plates and cultured for 24 h. Following this, TransIT-X2 reagent (Mirus Bio, USA) was used according to the manufacturer’s instructions to transfect NSC-34’s (1 μg DNA per well for 12-well plates, 2.5 μg per well for a 6-well plate). Cells were then incubated for 8 h prior to replating for experiments into other plates or chambers.
# (§6) Transfected NSC-34 cells were plated out into 12-well plates and left overnight. […] Cells were then harvested via aspiration and pelleted (300 × g). Lysis and immunoblots were carried out as previously described. Briefly, cell pellets were lysed in ice-cold lysis buffer containing protease inhibitors (Thermo Fisher, USA) and N-ethylmaleimide (NEM) at a final concentration of 1 mg/mL. Protein concentration was measured by DC assay (BioRad, Australia) and samples were denatured in SDS-sample buffer containing 40 mM NEM at 90°C for 5 min. Lysates were loaded into 26-lane stain-free gels (BioRad, Australia) and electrophoresed. Proteins were transferred to 0.2 μm PVDF membranes for 1 h at 4°C. Membranes were blocked in 5% skim milk in TBST for 1 h prior to addition to primary antibody which as a rabbit anti-GFP antibody (ab290, 1:5,000, Abcam USA) and incubated overnight at 4°C. Membranes were washed 3× and then incubated for 1 h at room temperature in secondary antibody (goat anti-rabbit HRP conjugate at 1:5,000 (catalog no.: P0448; Dako). Membranes were then washed 3× prior to developing with SuperSignal West Pico Plus substrate (Thermo Fisher Scientific).
# [7] = molecular target: T2, EGFP-labeled SOD1 (wild-type, fALS variants, Cys111Ser, F50E/G51E) (Homo sapiens, UniProt P00441, F51E/G52E); assay: as above; format: cell-based, mouse NSC-34 cells; details: 20 μm S-XL6
# T2 construct: expressed in transfected cells; host or cells: NSC-34 mouse neuroblastoma/motor neuron hybrid cells
# T2 sequence (P00441 2-154 F51E/G52E): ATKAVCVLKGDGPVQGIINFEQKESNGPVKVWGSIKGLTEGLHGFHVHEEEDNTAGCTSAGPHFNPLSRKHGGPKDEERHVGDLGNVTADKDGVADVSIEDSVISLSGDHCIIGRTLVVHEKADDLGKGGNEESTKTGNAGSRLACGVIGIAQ
# Description: as §4, §5, §6
# [8] = system: EGFP-labeled SOD1 (wild-type, fALS variants, Cys111Ser, F50E/G51E); assay: as above; format: cell-based, mouse NSC-34 cells
# Description: as §4, §5, §6
smiles,measurement,setting,value
"[O-][S+]1CCCCS1 (centres unmarked) [S-XL6, 1,2-dithiane-1-oxide]",plasma protein binding assay readout (Fig 6C),[1],79%
same,plasma protein binding,[1]; plasma,no binding
same,plasma protein binding assay readout (Fig 6C),[1]; plasma,144%
same,unfolding temperature (Tu) of S-XL6 cross-linked protein,[2],90.2 °C
same,unfolding temperature (Tu) of S-XL6 cross-linked protein,[3],85.0 °C
same,aggregation of EGFP-labeled wild-type SOD1,[4],increased cellular aggregation; also recorded: accelerate the aggregation
same,Inclusion Formation,[4]; 5 uM,0.4215 and 0.8811 and 2.367 and 0.4188 and 0.4044
same,Inclusion Formation,[4]; 10 uM,0.8155 and 1.677 and 1.595 and 4.094 and 2.381
same,Inclusion Formation,[4]; 20 uM,9.589 and 4.535 and 7.818 and 6.78 and 6.154
same,aggregation of EGFP-labeled G93A,[5],did not affect
same,Inclusion Formation,[5]; 5 uM,5.34 and 6.771 and 14.6572 and 11.1111 and 8.602
same,Inclusion Formation,[5]; 10 uM,6.731 and 9.113 and 13.3487 and 16.0367 and 12.7358
same,Inclusion Formation,[5]; 20 uM,8.219 and 11.7978 and 11.4911 and 10.411 and 12.1547
same,cross-linking of the Cys111Ser variant,[6],lack of cross-linking
same,binding to the constitutively monomeric variant (F50E/G51E),[7],lack of binding
same,cross-linking yield compared to leading cyclic thiosulfinates (Comp 2–5),[8],highest cross-linking yield; also recorded: most effective compound
same,off-product with EGFP-wild-type and EGFP-D90A SOD1,[8],high-molecular weight species consistent with trimeric SOD1
